Reference: patent US11801232B2, “Targeting of ARID1A-deficient cancers by inhibiting de novo pyrimidine synthesis pathway” (YALE UNIVERSITY, priority 2019, dated 2023)
Where two headings read alike, the source gives them in different places.

Tests used:
ES2 cells = assay: Cytotoxicity (SRB) assay with CalcuSyn combination analysis; type: cell-based; conditions: Homo sapiens, ES2 parental, read-out: Dm
Procedure: Cytotoxicity assay. Cells were seeded in 96-well plates, with 2000 cells in 100 μL/well, and cultured for 24 h. The cells were treated with serial dilutions of drugs or without drug for an additional 72 h. Cell number was determined using a sulforhodamine B (SRB) assay, as previously described^23. Briefly, cells were fixed with 20% trichloroacetic acid (TCA), air-dried, and stained with 0.4% SRB dissolved in 1% acetic acid. After washing, protein-bound dye was solubilized with 10 mM unbuffered Tris-base solution (pH 10.5) and detected at 510 nm using a microplate reader. Percentage of cell-growth was calculated using the following formula: % cell growth=[(Absorbance sample)/(Absorbance untreated)]×100 […] Datasets from at least three independent experiments were combined, and each table cell contains the mean value±SD. SCR, ES2-shScrambled. N/A, not applicable. Statistical analysis was carried out by one-way ANOVA with Bonferroni's post-hoc test, and differences were considered significant at **P<0.01 and ***P<0.001 as compared to the ES2 parental group with the same drug treatment. […] CIwt value was calculated using the formula: […] Datasets from at least three independent experiments were combined, and each table cell contains the mean value±SD. Teri, teriflunomide. SCR, ES2-shScrambled. N/A, not applicable. Statistical analysis was carried out by one-way ANOVA with Bonferroni's post-hoc test, and differences were considered significant at ***P<0.001 as compared to the ES2 parental group with the same drug treatment.

P-CHK1 Ser345 = assay: Immunoblot of phosphorylated CHK1 in ES2 cell lysates; type: cell-based, human; conditions: ES2 cells; teriflunomide 15 μM, AZD6738 1.5 μM
Procedure: (§1) Immunoblot Analysis and Co-Immunoprecipitation Assay. For immunoblotting experiments, cells were lysed in BC200 lysis buffer [20 mM Tris-HCl (pH 7.5), 200 mM NaCl, 1 mM EDTA, 0.2% Nonidet P-40 (NP-40), freshly added complete protease inhibitor cocktail (from Roche), and PhosSTOP phosphatase inhibitor (from Roche)] or in boiling SDS lysis buffer [1% SDS and 10 mM Tris-CI (pH 7.5)], as previously described^21. Protein concentrations were quantified using a modified Lowry assay, and equal protein amounts were loaded onto a 10% SDS-PAGE gel and separated by gel electrophoresis, followed by transfer to a nitrocellulose membrane. The nitrocellulose membrane was stained with Ponceau S to confirm equal protein loading and then blocked in 2% BSA in Tris-buffered saline with 0.1% Tween-20 (tris buffered saline with tween, or TBST). Primary antibody incubation was done for 2 h at room temperature or, for phospho-specific antibodies, overnight at 4° C. An HRP-conjugated secondary antibody was used, followed by detection using enhanced chemiluminescence substrate (from Pierce). Autoradiograph images were scanned and saved as unmodified TIFF images, and densitometry analysis was done with ImageJ (from NIH) software.

γ-H2AX = assay: Immunoblot and immunofluorescence of γ-H2AX in ES2 cells; type: cell-based, human; conditions: ARID1A-knockdown ES2 cells; teriflunomide 15 μM, AZD6738 1.5 μM, VX-970 0.075 μM; 24-72 h
Procedure: as §1
Immunofluorescence. […] Images of cells were acquired using a BZ-X710 fluorescence microscope (from KEYENCE) and analyzed using ImageJ (from NIH).

ES2-shARID1A xenografts = conditions: mouse, in vivo, ip, 4 mg/kg
Procedure: Animal Model. All animal procedures were conducted in accordance with a protocol approved by the Institutional Animal Care and Use Committee at Yale University.
Three mouse experiments were performed: (i) to assess an effect of teriflunomide on ES2 cells in vivo, (ii) to assess an effect of teriflunomide on SKOV3 cells in vivo, and (iii) to assess a combination effect of teriflunomide and AZD6738 on ES2-shARID1A cells in vivo. All experiments were performed using subcutaneous cell-xenograft models generated by injecting cells into the flanks of 6-week-old female athymic NCr-nu/nu mice (Charles River Laboratories).
Animal-human dose translation was calculated as previously described^24. Tumor volumes were measured every other day by caliper to determine tumor volume using the formula (length/2)×(width^2). […] Experiments were terminated when mean tumor volume of a vehicle ES2-shCon group reached 1000 mm^3. Tumor xenografts were excised at time of euthanasia. Representative samples were flash-frozen in liquid nitrogen for subsequent protein expression analysis by immunoblotting, as well as being formalin-fixed paraffin-embedded (alternatively, FFPE) for subsequent hematoxylin and eosin staining and immunohistochemical analysis. FFPE sections were reviewed by a pathologist (alternatively, P.H.), and cellular necrosis was quantified as % cross-sectional area of bisected tumor xenografts. […]

[1] = ES-2, Table 1, single drug, median effect

Compound	IC50 (ES2 cells; [1]) [µM]	Phosphorylation of CHK1 on serine 345 (P-CHK1 Ser345)	γ-H2AX protein levels (γ-H2AX)	IC50 (ES2 cells; ES-2, Table 2, teriflunomide alone) [µM]	Weight loss or toxicity in mice (ES2-shARID1A xenografts)
C[C@@H]1COCCN1c1cc(C2([S@](C)(=N)=O)CC2)nc(-c2cc[nH]c3nccc2-3)n1 [AZD6738]	1.23 ± 0.16	decreased levels	increased	–	–
C/C(O)=C(\C#N)C(=O)Nc1ccc(C(F)(F)F)cc1 [Teriflunomide, teriflunomide]	26.4 ± 2.18	–	–	29.1 ± 0.54	no significant weight loss or toxicity
